Data published in patent US10821160B2, “L-asparaginase variants and fusion proteins with reduced L-glutaminase activity and enhanced stability” (priority 2016, dated 2020).
Where “and” joins values, the source holds several entries; their conditions need not be identical. Identical values can stand only once.

Experiments:
[1] = target: T1, Erwinia chrysanthemi L-asparaginase, wild type (ErA-WT), SEQ ID NO:1 (Dickeya chrysanthemi, UniProt P06608); experiment: L-asparaginase activity, continuous spectroscopic enzyme-coupled assay; type: biochemical; conditions: 37° C
T1 construct: lacking the first 21-amino acid residue signal peptide; His6-SUMO (yeast Smt3p) (N, cleaved yes); made in house; host or cells: E. coli BL21(DE3) C41
Description: In brief, the assay measures the production of L-aspartate through the 1:1 oxidation of reduced NADH. The conversion of NADH to NAD^+ was measured spectrophotometrically as a decrease in absorbance at 340 nm at 37° C. All measurements were taken in triplicate. Rates were fit to the Michaelis-Menten equation using SIGMAPLOT software (Systat Software Inc).
(§1) The parameters that define the asparagine-depleting power of such enzyme drugs are of significance. […] Enzymologists often combine these two parameters into a single value (kcat/Km) that is thought to represent the efficiency of the enzyme.
(§2) Using colorimetric enzyme-coupled assays, L-asparaginase and L-glutaminase activity of the enzymes was determined.

[2] = target: Erwinia chrysanthemi L-asparaginase (ErA) variant E63Q (ErA-E63Q), SEQ ID NO:2 (Dickeya chrysanthemi, UniProt P06608, E84Q); conditions: 37° C
Description: (§3) L-asparaginase activity was determined using a continuous spectroscopic enzyme-coupled assay as previously described (Schalk, et al. (2014) J. Biol. Chem. 289:33175-33186). In brief, the assay measures the production of L-aspartate through the 1:1 oxidation of reduced NADH. The conversion of NADH to NAD^+ was measured spectrophotometrically as a decrease in absorbance at 340 nm at 37° C. All measurements were taken in triplicate. Rates were fit to the Michaelis-Menten equation using SIGMAPLOT software (Systat Software Inc).
as §1, §2

[3] = target: T2, Erwinia chrysanthemi L-asparaginase (ErA) variant E63Q-S254N (ErA-DM1), SEQ ID NO:3 (Dickeya chrysanthemi, UniProt P06608, E84Q/S275N); type: biochemical
T2 construct: lacking the first 21-amino acid residue signal peptide; His6-SUMO (yeast Smt3p) (N, cleaved yes); made in house; host or cells: E. coli BL21(DE3) C41

[4] = target: T3, Erwinia chrysanthemi L-asparaginase (ErA) variant E63Q-S254Q (ErA-DM3), SEQ ID NO:5 (Dickeya chrysanthemi, UniProt P06608, E84Q/S275Q); type: biochemical; conditions: 37° C
T3 construct: lacking the first 21-amino acid residue signal peptide; His6-SUMO (yeast Smt3p) (N, cleaved yes); made in house; host or cells: E. coli BL21(DE3) C41
Description: as §3, §1, §2

[5] = target: T4, Erwinia chrysanthemi L-asparaginase (ErA) variant A31I-E63Q-S254N (ErA-TM1), SEQ ID NO:7 (Dickeya chrysanthemi, UniProt P06608, A52I/E84Q/S275N); type: biochemical; conditions: 37° C
T4 construct: lacking the first 21-amino acid residue signal peptide; His6-SUMO (yeast Smt3p) (N, cleaved yes); made in house; host or cells: E. coli BL21(DE3) C41

[6] = target: T5, Erwinia chrysanthemi L-asparaginase (ErA) variant A31I-E63Q (ErA-DM2), SEQ ID NO:4 (Dickeya chrysanthemi, UniProt P06608, A52I/E84Q); type: biochemical; conditions: 37° C
T5 construct: lacking the first 21-amino acid residue signal peptide; His6-SUMO (yeast Smt3p) (N, cleaved yes); made in house; host or cells: E. coli BL21(DE3) C41
Description: as §3
(§4) Using colorimetric enzyme-coupled assays, L-asparaginase and L-glutaminase activity of the enzymes was determined. […] Seventeen of the 18 mutants had reduced L-glutaminase activity (Table 7). However, for most of the mutants, this decrease was concomitant with a decline in the L-asparaginase activity. Using the criteria of (i) ≥60% retained L-asparaginase activity (relative to Erw-WT) and (ii) ≤5% L-glutaminase versus and L-asparaginase activity, mutants ErA-E63Q, ErA-S254P, ErA-A31I+E63Q and ErA-S254N+E63Q were selected for further study.

[7] = target: T6, Erwinia chrysanthemi L-asparaginase (ErA) variant S254P (ErA-S254P) (Dickeya chrysanthemi, UniProt P06608, S275P); type: biochemical; conditions: 37° C
T6 construct: lacking the first 21-amino acid residue signal peptide; His6-SUMO (yeast Smt3p) (N, cleaved yes); made in house; host or cells: E. coli BL21(DE3) C41
Description: as §3, §4

[8] = target: T7, Escherichia coli L-asparaginase, wild type (EcA-WT), SEQ ID NO:9 (Escherichia coli, UniProt P00805); experiment: L-asparaginase activity, continuous spectroscopic enzyme-coupled assay; type: biochemical; conditions: 37° C
T7 sequence (P00805 with tags, fused parts or gaps): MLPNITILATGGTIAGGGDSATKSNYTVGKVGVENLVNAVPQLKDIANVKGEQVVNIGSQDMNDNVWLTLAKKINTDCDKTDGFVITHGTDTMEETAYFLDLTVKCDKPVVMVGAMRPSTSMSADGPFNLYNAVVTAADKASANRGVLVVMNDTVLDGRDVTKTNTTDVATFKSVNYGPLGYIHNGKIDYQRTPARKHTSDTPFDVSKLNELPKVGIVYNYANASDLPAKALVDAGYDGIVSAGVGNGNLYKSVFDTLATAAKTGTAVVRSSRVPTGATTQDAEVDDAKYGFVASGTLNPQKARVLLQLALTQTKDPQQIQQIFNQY
Description: as §3
The parameters that define the asparagine-depleting power of such enzyme drugs are of significance. […] Enzymologists often combine these two parameters into a single value (kcat/Km) that is thought to represent the efficiency of the enzyme. […] Therefore, the ErA enzyme was selected for developing a variant with low L-glutaminase activity.

[9] = target: T8, 10K PEGylated Erwinia chrysanthemi L-asparaginase (ErA) variant A31I-E63Q-S254Q-D84C (10K PEGylated-ErA-TM2-D84C) (Dickeya chrysanthemi, UniProt P06608, A52I/D105C/E84Q/S275Q); experiment: L-asparaginase activity, comparison with ErA-TM2; type: biochemical
T8 construct: lacking the first 21-amino acid residue signal peptide; made in house
Description: as §3
(§5) The resulting […] protein was expressed, purified and PEGylated with mPEG-10K.

[10] = target: T9, Erwinia chrysanthemi L-asparaginase (ErA) variant A31I-E63Q-S254Q-D84C (ErA-TM2-D84C) (Dickeya chrysanthemi, UniProt P06608, A52I/D105C/E84Q/S275Q); experiment: L-asparaginase activity, comparison with ErA-TM2; type: biochemical
T9 construct: lacking the first 21-amino acid residue signal peptide; made in house
Description: as §3, §5

[11] = tested on: Erwinia chrysanthemi L-asparaginase (ErA) variants ErA-E63Q, ErA-DM2 (A31I-E63Q) and ErA-DM1 (E63Q-S254N); experiment: L-asparaginase activity of the mutants as a group vs ErA-WT; type: biochemical; conditions: Asn
Description: as §3, §4

[12] = target: Erwinia chrysanthemi L-asparaginase (ErA) variant A31I-E63Q-S254Q (ErA-TM2), SEQ ID NO:6 (Dickeya chrysanthemi, UniProt P06608, A52I/E84Q/S275Q); type: biochemical; set-up: lacking the first 21-amino acid residue signal peptide; His6-SUMO (yeast Smt3p) (N, cleaved yes); made in house; host or cells: E. coli BL21(DE3) C41
Description: as §3, §2

Q: What does the source list for `NC(=O)C[C@H](N)C(=O)O` [Asn, L-asparagine]?
A: kobs @20 μM ([1]; 20 μM Asn): 50.7 s⁻¹; kobs @50 μM ([1]; 50 μM Asn): 105.3 s⁻¹; kobs @20 μM ([2]; 20 μM Asn): 46.3 s⁻¹; kobs @50 μM ([2]; 50 μM Asn): 92.2 s⁻¹; Km ([2]; Asn): 48.1 µM and 50.7 µM; kobs @20 μM ([3]; 20 μM Asn, 37° C): 18.9 s⁻¹; kobs @50 μM ([3]; 50 μM Asn, 37° C): 36.3 s⁻¹; kcat ([3]; Asn, 37° C): 169.8 ± 1.5 s⁻¹; increase in Asn Km ([3]; Asn, relative to ErA-WT): 4 fold; kobs @20 μM ([4]; 20 μM Asn): 14.2 s⁻¹; kobs @50 μM ([4]; 50 μM Asn): 36.3 s⁻¹ and 30.8 s⁻¹; Km ([4]; Asn): 179 ± 5.6 µM; kcat ([4]; Asn): 147.3 ± 1.0 s⁻¹; kobs @20 μM ([5]; 20 μM Asn): 16.4 s⁻¹; kobs @50 μM ([5]; 50 μM Asn): 29.2 s⁻¹; kcat ([5]; Asn): 109.7 ± 0.8 s⁻¹; kobs @20 μM ([6]; 20 μM Asn): 38.8 s⁻¹; kobs @50 μM ([6]; 50 μM Asn): 69.7 s⁻¹; Km ([6]; Asn): 36.9 ± 2.2 µM; kcat ([6]; Asn): 123.0 ± 1.8 s⁻¹; kobs @20 μM ([7]; 20 μM Asn): 4.5 s⁻¹; kobs @50 μM ([7]; 50 μM Asn): 10.5 s⁻¹; Km ([7]; Asn): 1150 ± 25.5 µM; kcat ([7]; Asn): 250.0 ± 2.8 s⁻¹; kobs @20 μM ([8]; 20 μM Asn): 28.3 s⁻¹; kobs @50 μM ([8]; 50 μM Asn): 41.3 s⁻¹; kobs at 2 mM Asn [9]: 163.4 s⁻¹; kobs at 2 mM Asn [10]: 172.8 s⁻¹; near wild-type kcat (range, of ErA-WT) [11]: 60-90%; kobs @20 μM ([12]; 20 μM Asn, 37° C): 40.8 s⁻¹; kobs @50 μM ([12]; 50 μM Asn, 37° C): 89.1 s⁻¹; kobs at 2 mM Asn ([12]; 2 mM Asn): 178.8 s⁻¹; Km ([12]; Asn, 37° C): 95 ± 3.5 µM; kcat ([12]; Asn, 37° C): 261.2 ± 2.8 s⁻¹
